According to patent publication US11897863B2, “Indazole amine derivative, preparation method therefor and medical use thereof” (ZHEJIANG HISUN PHARMACEUTICAL CO., LTD., priority 2018, dated 2024):

Key:
[1] = Solubility test in phosphate buffer solution (PBS, pH7.4); format: physicochemical; details: PBS pH 7.4, room temperature, LC-UV
Protocol: 1.5 mg of the test compound was taken, and PBS was added thereto to prepare the test solution with theoretical concentration of 2 mg·mL^−1. The test solution was ultrasonicated for 10 min, and rotated on a rotating tray at room temperature for at least 8 h. After the rotation treatment, the test solution was ultrasonicated for 10 min and centrifuged at 13000 rpm for 15 min. 100 μL of supernatant was transferred to a 0.6 mL new tube for spinning and rinsing for 5 min. 500 μL of supernatant was transferred into the above rinsed 0.6 mL tube. Then the tube was centrifuged at 13000 rpm for 15 min, and the supernatant was taken (or diluted) for analysis by LC-UV. Sample concentration was quantified by standard curve fitting (3 points).

[2] = tested on: TNF-α secretion in THP-1 cells; experiment: cells; details: Homo sapiens, THP-1, 5 h, read-out: IC50 in inhibiting TNF-α secretion in THP-1 cells
Protocol: Method for Determining THP-1 Cell Activity
In this experiment, TNF-α secretion was triggered by lipopolysaccharide (LPS) incubation.
After induced differentiation under the condition of 37° C. and 5% CO2 for 48 h, adherent macrophages were produced. Then PMA supernatant was removed and PBS was used to wash the cells once. In each case, all the drugs were dissolved in 100% DMSO to obtain an initial concentration of 10 mM. The drugs were filtered with 0.22 μm sterile filter membrane before use. LPS was dissolved in PBS with an initial concentration of 1 mg/mL. During use, it was diluted to 20 μg/mL with PBS. […] 200 μL of drugs were added to each well, and 50 μL of 20 μg/ml LPS (final concentration: 4 μg/mL) was added to each well. They were incubated in a 5% CO 2 incubator at 37° C. for 5 h. […]
Determination by using TNF-α ELISA kit: the amount of TNF-α was determined by R&D System Human TNF-α ELISA kit. […] 50 μL of Stop Solution (2N sulfuric acid stop solution) was added to each well and evenly mixed, and the absorbance at 450 nm was measured with microplate reader within 30 min. Compared with the fluorescence intensity ratio of the control group, the inhibition rate of the compound at each concentration was calculated, and then the IC 50 value of the compound was calculated by fitting the nonlinear curve of logarithmic concentration-inhibition rate with GraphPad Prism5.

| Solubility in phosphate buffer solution (PBS, pH 7.4) [1] [uM] | SMILES | IC50 [2] [nM] |
| --- | --- | --- |
| 6.7 | CC(C)(O)CCn1cc2cc(NC(=O)c3cccc(C(F)(F)F)n3)c(C(C)(C)O)cc2n1 [BAY-1834845] |  |
|  | CN(C)CCn1cc2cc(NC(=O)c3cccc(C(F)(F)F)n3)c(C(C)(C)O)cc2n1 [Compound 1, N-(2-(2-(dimethylamino)ethyl)-6-(2-hydroxypropan-2-yl)-2H-indazol-5-yl)-6-(trifluoromethyl)pyridin-2-carboxamide] | 55 |
